# In patent US5744462A, “Steroids useful as anti-cancer and anti-obesity agents” (Research Corporation Technologies, Inc., priority 1995, dated 1998):
# “Also recorded” adds a separate entry of the source.
# Assays:
# [1] = Anti-obesity action, body weight, female Balb/c mice; format: in vivo, mouse (female Balb/c); details: 0.25% in diet
# Procedure: Female Balb/c (8 weeks old) mice were obtained from
# the Jackson Laboratory and were housed in polycarbonate cages
# (6 mice/cage) in animal quarters maintained at 24 ± 1° C. with
# 12 hours of light and 12 hours of darkness each day. One
# week after arrival, the mice were placed on a diet containing
# either DHEA, 8354, or without steroid. Animals were weighed
# [2] = without suppressing appetite; cited from earlier work
# [3] = Liver weight after three weeks of diet treatment; format: in vivo, mouse (female Balb/c); details: 0.25% of diet
# Procedure: (§1) Female Balb/c mice were housed in polycarbonate cages (6/mice/cage) in animal quarters maintained at 24°±1° C. with 12 hours of light and 12 hours of dark each day. The mice were placed on a diet containing either DHEA, 8354, A, B clofibrate or with no addition. Three weeks later the mice were killed, the livers were perfused with cold saline, weighed, and 5% liver homogenates were prepared for the determination of catalase activity by the spectrophotometric method of Luck (H. Luck, in Method in Enzyme Analysis, H. U. Bergmeyer, Ed. (Verlag Chemie, Weinheim/Bergstrasse, Germany, 1965)). Total protein was measured by the method of Lowry, et al. (O. H. Lowry, N. J. Rosebrough, A. L. Farr, R. J. Randall, J. Biol. Chem., 193, 265 (1951)).
# [4] = tested on: cultured rat kidney epithelial cell line; details: cited from earlier work
# liver catalase = assay: Liver catalase activity after three weeks of diet treatment; format: in vivo, mouse (female Balb/c)
# Procedure: as §1
# [5] = Estrogenic and anti-estrogenic activity, uterine weight; format: in vivo, rat (female CD); details: 60 mg/kg s.c. for 3 days, DHEA significantly greater than control
# Procedure: Estrogenic and Anti-Estrogenic Activity
# Female CD rats, 26-27 days old, were injected subcutaneously for 3 days with one of the compounds of the present invention at 60 mg/kg in propylene glycol. Controls received propylene glycol alone. On the 4th day, the rats were killed and the uteri were dissected out and weighed.
# [6] = topical, complete carcinogenesis model; cited from earlier work
smiles,measurement,setting,value
"C[C@]12CC[C@H](O)CC1=CC[C@@H]1[C@@H]2CC[C@]2(C)C(=O)CC[C@@H]12 [DHEA, Dehydroepiandrosterone]",mean weekly weight ± S.D.,"[1]; week 0, control 17.5 ± 1.4",17.5 ± 1.5 grams
same,mean weekly weight ± S.D.,"[1]; week 1, control 19.9 ± 1.2",20.0 ± 0.9 grams
same,mean weekly weight ± S.D.,"[1]; week 2, control 20.6 ± 1.0",20.6 ± 0.9 grams
same,mean weekly weight ± S.D.,"[1]; week 3, control 21.8 ± 0.8",21.3 ± 1.3 grams
same,effect on obesity on long-term administration,[2],prevented the development of obesity without suppressing appetite
same,LIVER WEIGHT,"[3]; control 0.057 ± 0.006, DHEA p < 0.05, clofibrate p < 0.002 vs control",0.074 ± 0.005 gm/gm body weight
same,"liver weight, in words",[3]; mice,increased liver weight; also recorded: hepatomegaly
same,capacity of TPA to stimulate 3H-thymidine incorporation,[4],antagonizes
same,CATALASE ACTIVITY,"liver catalase; 0.25% of diet, control 31.1 ± 6.7, DHEA p < 0.05, clofibrate p < 0.001 vs control",97.8 ± 24 Units per mg protein
same,increase in liver catalase specific activity,"liver catalase; 0.25%, vs control",threefold
same,"catalase activity, in words","liver catalase; mice, 0.25% of diet",stimulated catalase activity
same,Mean Uterine Weight ± S.D.,"[5]; control 2.02 ± 0.28, p < .001",4.17 ± 0.48 mg/100 gm body weight
same,Mean Uterine Weigh ± S.D.,"[5]; Table 2a, control 1.95 ± 0.22, p < 0.001",3.93 ± 0.71
same,DMBA produced papillomas and carcinomas,[6],inhibits DMBA produced papillomas and carcinomas
